Data reported in paper PMC3508153 (Journal of medicinal chemistry, 2012).

Columns and labels:
in vivo [1] = settings: rat, plasma, po, 10 mg/kg
in vivo [2] = settings: rat, plasma, iv, 2 mg/kg
[3] = In vivo PK after oral administration in rats, incl. brain and plasma levels; settings: rat, oral 10 mg/kg; for Vd: sodium salt; for Brain: brain harvested at or near Tmax; for Plasma: plasma harvested at or near Tmax
in vivo [4] = settings: rat, plasma, ip, 10 mg/kg

SMILES	AUC(0-t) (in vivo [1]) [µM·h]	AUC(0-t) (in vivo [2]) [µM·h]	Vd [3] [mL]	Brain [3] [µM]	Plasma [3] [µM]	AUC(0-t) (in vivo [4]) [µM·h]
O=C(O)c1cc(-c2cccc(COc3ccc4c(c3)CN(C3CCCC3)C4=O)c2)ccc1O [Compound 15b, 3'-((2-Cyclopentyl-1-oxoisoindolin-5-yloxy)methyl)-4-hydroxybiphenyl-3-carboxylic acid]	7.1	2.57	28.0	0.0071 ± 0.0004	0.21 ± 0.046	
COc1ccc(C(=O)O)cc1-c1cccc(COc2ccc3c(c2)CN(C2CCCC2)C3=O)c1 [Compound 15a, 3'-((2-Cyclopentyl-1-oxoisoindolin-5-yloxy)methyl)-6-methoxybiphenyl-3-carboxylic acid]	12		10875.2	0.18 ± 0.01	1.46 ± 0.29	
O=C(O)c1cc(-c2cccc(COc3ccc4c(=O)n(C5CC5)sc4c3)c2)ccc1Cl [Compound 3e, 4-Chloro-3'-((2-cyclopropyl-3-oxo-2,3-dihydrobenzo[d]isothiazol-6-yloxy)methyl)biphenyl-3-carboxylic acid]	61.5		4.1	0.03 ± 0.01	0.8 ± 0.2	
O=C(O)c1cc(-c2cccc(COc3ccc4c(c3)CN(C3CCCC3)C4=O)c2)ccc1Cl [Compound 2]	42.5	11.8				
O=C(O)c1cc(-c2cccc(-c3ccc4c(c3)CN(C3CCCC3)C4=O)c2)ccc1Cl [Compound 24, 4-Chloro-3'-(2-cyclopentyl-1-oxoisoindolin-5-yl)biphenyl-3-carboxylic acid]	2.67		96.2			3.23
